# Data as given in ChEMBL document CHEMBL5465560, “Selectivity Literature for EUbOPEN Chemogenomic Library” (2024).
# Legend:
# [1] = molecular target: T1, Cyclin-dependent kinase-like 2 (Homo sapiens) (UniProt Q92772); test: Selectivity interaction (KinomeScan (DiscoverX)) EUB0000045b CDKL2
# T1 sequence (whole entry): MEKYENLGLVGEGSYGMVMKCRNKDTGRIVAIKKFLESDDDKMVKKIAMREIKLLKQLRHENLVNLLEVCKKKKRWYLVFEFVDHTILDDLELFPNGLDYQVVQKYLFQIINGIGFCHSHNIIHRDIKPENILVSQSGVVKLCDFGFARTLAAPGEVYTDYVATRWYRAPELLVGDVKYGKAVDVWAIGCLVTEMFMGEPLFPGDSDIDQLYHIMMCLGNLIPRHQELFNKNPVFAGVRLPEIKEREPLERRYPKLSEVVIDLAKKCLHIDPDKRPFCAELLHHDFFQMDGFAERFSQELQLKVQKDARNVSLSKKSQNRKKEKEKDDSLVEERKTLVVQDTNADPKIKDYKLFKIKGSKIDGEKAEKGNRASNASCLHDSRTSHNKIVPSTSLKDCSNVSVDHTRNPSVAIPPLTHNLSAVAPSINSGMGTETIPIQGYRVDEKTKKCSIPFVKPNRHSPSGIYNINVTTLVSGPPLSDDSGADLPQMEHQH
# [2] = molecular target: Serine/threonine-protein kinase PAK 6 (Homo sapiens) (UniProt Q9NQU5); test: Selectivity interaction (KinomeScan (DiscoverX)) EUB0000695a PAK6; details: at 100 nM
# [3] = molecular target: Homeodomain-interacting protein kinase 3 (Homo sapiens, UniProt Q9H422); test: Selectivity interaction (Kinase panel (Z-LYTE Assay)) EUB0001632a HIPK3; details: at 10 µM
# [4] = molecular target: T2, Myosin light chain kinase family member 4 (Homo sapiens) (UniProt Q86YV6); test: Selectivity interaction (KinomeScan (DiscoverX)) EUB0000666a MYLK4; details: at 10 µM
# T2 sequence (whole entry): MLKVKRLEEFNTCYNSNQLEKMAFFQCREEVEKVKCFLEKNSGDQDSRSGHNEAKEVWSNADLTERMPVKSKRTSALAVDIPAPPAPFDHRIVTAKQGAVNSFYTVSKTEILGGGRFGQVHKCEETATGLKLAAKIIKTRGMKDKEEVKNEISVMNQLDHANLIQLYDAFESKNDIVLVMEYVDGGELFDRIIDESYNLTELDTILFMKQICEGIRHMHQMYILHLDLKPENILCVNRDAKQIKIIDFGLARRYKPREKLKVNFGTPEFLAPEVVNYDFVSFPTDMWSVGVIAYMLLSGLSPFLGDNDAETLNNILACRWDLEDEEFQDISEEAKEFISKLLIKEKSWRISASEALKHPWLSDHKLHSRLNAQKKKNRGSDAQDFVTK
# [5] = molecular target: Microtubule-associated serine/threonine-protein kinase 1 (Homo sapiens) (UniProt Q9Y2H9); test: Selectivity interaction (KinomeScan (DiscoverX)) EUB0000618a MAST1; details: at 10 µM
# [6] = molecular target: T3, Serine/threonine-protein kinase BRSK2 (Homo sapiens) (UniProt Q8IWQ3); test: Selectivity interaction (KinomeScan (DiscoverX)) EUB0000655a BRSK2; details: at 10 µM
# T3 sequence (whole entry): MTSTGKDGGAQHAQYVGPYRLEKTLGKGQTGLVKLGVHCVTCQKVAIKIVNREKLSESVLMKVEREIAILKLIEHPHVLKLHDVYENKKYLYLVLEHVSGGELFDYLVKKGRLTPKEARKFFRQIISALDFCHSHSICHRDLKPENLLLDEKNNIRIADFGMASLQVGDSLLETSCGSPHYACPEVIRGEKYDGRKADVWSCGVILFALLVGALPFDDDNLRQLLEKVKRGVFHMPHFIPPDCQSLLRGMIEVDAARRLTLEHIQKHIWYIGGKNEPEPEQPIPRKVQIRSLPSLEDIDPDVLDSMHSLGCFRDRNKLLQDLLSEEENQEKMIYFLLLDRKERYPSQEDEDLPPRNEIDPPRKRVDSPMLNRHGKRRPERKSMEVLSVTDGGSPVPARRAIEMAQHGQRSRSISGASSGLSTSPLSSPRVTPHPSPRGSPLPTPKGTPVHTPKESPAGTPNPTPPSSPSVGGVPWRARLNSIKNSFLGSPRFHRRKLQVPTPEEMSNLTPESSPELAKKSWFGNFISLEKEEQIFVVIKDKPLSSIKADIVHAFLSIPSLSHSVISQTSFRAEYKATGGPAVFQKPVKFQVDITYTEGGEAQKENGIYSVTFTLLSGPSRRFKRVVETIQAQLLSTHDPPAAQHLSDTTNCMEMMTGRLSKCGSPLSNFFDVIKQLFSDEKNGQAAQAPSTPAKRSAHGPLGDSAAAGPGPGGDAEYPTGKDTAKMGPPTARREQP
# [7] = molecular target: Casein kinase I isoform gamma-2 (Homo sapiens) (UniProt P78368); test: Selectivity interaction (KinomeScan (DiscoverX)) EUB0000655a CSNK1G2; details: at 10 µM
# [8] = molecular target: Calcium/calmodulin-dependent protein kinase type II subunit beta (Homo sapiens) (UniProt Q13554); details: at 10 µM
# [9] = molecular target: T4, Serine/threonine-protein kinase D1 (Homo sapiens) (UniProt Q15139); test: Selectivity interaction (Ambit KINOMEscan and KiNATiv profiling in Jurkat cells) EUB0000090b PRKD1; assay type: cell-based; details: at 1 µM
# T4 sequence (whole entry): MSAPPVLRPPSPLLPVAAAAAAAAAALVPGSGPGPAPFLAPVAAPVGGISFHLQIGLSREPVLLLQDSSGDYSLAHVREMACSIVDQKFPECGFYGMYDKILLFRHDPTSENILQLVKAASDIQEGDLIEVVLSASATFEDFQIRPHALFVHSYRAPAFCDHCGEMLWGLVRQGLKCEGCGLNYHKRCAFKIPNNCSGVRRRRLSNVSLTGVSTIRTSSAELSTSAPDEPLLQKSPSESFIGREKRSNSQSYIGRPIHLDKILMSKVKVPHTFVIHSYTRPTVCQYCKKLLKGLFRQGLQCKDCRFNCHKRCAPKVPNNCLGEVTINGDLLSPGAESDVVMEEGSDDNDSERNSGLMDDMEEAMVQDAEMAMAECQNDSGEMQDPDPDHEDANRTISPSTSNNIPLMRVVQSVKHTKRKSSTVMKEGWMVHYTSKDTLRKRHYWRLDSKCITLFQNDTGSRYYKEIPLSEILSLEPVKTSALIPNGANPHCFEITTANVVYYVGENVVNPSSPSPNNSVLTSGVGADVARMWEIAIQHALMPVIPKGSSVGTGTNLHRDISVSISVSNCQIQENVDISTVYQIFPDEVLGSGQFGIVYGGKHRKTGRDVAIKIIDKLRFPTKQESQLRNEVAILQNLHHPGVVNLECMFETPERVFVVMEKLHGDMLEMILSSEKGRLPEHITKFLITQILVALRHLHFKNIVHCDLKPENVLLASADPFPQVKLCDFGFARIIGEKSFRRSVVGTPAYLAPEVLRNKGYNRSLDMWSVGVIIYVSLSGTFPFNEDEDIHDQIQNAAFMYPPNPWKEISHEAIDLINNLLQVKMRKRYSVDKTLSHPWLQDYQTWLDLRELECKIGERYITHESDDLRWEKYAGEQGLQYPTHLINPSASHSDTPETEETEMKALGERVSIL
# Casein kinase I isoform gamma-2 (Homo sapiens), sequence (P78368 whole entry, looked up, canonical isoform): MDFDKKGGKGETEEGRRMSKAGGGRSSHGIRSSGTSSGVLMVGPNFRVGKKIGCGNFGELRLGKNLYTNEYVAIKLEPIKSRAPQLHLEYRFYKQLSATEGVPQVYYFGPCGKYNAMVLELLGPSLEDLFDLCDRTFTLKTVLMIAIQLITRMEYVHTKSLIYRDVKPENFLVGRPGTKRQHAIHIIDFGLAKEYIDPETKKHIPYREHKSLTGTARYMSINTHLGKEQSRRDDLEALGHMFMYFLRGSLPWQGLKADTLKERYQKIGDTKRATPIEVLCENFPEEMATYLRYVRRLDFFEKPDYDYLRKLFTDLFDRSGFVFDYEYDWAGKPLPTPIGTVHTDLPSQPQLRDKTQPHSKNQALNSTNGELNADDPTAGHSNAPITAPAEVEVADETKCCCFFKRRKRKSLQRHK
# Homeodomain-interacting protein kinase 3, sequence (Q9H422 whole entry, looked up): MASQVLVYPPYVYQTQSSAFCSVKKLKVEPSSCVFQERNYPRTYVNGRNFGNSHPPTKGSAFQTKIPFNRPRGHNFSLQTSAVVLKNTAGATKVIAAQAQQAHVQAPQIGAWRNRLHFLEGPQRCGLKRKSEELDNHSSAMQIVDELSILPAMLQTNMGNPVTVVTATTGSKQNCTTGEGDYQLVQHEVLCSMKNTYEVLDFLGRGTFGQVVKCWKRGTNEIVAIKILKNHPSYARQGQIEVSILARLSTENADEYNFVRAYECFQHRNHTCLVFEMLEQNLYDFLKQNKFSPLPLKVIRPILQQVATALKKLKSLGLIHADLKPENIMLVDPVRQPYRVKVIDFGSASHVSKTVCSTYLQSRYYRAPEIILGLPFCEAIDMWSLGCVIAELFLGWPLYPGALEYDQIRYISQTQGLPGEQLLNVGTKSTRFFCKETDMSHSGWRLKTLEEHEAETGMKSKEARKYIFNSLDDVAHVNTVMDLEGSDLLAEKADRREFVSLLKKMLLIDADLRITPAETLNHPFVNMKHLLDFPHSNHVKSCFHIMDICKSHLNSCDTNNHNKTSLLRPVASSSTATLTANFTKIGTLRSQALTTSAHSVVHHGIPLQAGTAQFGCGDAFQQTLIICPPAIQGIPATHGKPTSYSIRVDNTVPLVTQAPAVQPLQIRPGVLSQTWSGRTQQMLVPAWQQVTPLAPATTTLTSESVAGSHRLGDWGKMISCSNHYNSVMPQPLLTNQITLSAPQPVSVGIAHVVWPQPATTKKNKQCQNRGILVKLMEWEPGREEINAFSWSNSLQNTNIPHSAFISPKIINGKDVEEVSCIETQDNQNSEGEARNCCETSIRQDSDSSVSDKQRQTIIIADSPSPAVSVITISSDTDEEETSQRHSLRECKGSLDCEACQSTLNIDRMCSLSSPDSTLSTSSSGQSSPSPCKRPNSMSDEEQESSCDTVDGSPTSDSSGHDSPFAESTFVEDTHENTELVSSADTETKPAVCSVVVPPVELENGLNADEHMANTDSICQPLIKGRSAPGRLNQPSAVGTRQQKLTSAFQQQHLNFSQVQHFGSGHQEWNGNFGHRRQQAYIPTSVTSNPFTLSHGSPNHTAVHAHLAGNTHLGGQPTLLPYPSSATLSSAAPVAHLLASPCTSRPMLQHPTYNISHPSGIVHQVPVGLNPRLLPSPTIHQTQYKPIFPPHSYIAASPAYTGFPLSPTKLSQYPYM
# Serine/threonine-protein kinase PAK 6 (Homo sapiens), sequence (Q9NQU5 whole entry, looked up): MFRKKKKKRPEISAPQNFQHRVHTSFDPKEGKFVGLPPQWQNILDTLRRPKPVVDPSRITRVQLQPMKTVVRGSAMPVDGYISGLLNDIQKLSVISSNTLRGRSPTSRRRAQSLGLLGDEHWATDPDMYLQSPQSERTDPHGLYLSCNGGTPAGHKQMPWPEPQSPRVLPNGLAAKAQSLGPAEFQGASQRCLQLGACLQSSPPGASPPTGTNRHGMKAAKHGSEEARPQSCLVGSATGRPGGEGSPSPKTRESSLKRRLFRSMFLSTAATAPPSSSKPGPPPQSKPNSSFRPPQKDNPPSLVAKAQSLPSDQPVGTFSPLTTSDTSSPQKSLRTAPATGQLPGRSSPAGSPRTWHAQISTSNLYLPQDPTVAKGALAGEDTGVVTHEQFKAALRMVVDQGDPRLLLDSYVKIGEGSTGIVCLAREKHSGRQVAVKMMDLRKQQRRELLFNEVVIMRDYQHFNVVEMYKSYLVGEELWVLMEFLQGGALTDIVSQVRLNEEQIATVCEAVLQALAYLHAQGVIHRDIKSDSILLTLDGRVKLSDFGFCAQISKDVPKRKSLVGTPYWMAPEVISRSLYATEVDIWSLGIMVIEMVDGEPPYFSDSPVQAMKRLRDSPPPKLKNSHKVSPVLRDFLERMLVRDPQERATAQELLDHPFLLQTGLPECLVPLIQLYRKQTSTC
# Calcium/calmodulin-dependent protein kinase type II subunit beta (Homo sapiens), sequence (Q13554 whole entry): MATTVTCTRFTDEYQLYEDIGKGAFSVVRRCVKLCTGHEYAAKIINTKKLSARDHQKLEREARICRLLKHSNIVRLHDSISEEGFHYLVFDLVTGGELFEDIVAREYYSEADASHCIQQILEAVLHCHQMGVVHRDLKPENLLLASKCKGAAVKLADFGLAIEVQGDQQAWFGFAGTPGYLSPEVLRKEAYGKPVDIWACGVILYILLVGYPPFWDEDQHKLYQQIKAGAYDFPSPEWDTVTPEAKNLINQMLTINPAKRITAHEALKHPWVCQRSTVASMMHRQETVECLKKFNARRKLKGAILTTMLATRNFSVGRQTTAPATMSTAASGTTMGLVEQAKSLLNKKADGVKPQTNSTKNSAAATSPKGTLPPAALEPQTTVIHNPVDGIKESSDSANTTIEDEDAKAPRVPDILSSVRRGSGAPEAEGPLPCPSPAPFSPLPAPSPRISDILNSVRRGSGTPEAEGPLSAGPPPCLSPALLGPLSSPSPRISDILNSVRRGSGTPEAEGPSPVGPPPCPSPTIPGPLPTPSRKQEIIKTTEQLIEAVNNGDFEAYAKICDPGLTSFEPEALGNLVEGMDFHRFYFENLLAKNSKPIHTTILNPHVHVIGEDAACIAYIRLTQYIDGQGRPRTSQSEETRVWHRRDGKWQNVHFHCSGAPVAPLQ
# Microtubule-associated serine/threonine-protein kinase 1 (Homo sapiens), sequence (Q9Y2H9 whole entry, looked up): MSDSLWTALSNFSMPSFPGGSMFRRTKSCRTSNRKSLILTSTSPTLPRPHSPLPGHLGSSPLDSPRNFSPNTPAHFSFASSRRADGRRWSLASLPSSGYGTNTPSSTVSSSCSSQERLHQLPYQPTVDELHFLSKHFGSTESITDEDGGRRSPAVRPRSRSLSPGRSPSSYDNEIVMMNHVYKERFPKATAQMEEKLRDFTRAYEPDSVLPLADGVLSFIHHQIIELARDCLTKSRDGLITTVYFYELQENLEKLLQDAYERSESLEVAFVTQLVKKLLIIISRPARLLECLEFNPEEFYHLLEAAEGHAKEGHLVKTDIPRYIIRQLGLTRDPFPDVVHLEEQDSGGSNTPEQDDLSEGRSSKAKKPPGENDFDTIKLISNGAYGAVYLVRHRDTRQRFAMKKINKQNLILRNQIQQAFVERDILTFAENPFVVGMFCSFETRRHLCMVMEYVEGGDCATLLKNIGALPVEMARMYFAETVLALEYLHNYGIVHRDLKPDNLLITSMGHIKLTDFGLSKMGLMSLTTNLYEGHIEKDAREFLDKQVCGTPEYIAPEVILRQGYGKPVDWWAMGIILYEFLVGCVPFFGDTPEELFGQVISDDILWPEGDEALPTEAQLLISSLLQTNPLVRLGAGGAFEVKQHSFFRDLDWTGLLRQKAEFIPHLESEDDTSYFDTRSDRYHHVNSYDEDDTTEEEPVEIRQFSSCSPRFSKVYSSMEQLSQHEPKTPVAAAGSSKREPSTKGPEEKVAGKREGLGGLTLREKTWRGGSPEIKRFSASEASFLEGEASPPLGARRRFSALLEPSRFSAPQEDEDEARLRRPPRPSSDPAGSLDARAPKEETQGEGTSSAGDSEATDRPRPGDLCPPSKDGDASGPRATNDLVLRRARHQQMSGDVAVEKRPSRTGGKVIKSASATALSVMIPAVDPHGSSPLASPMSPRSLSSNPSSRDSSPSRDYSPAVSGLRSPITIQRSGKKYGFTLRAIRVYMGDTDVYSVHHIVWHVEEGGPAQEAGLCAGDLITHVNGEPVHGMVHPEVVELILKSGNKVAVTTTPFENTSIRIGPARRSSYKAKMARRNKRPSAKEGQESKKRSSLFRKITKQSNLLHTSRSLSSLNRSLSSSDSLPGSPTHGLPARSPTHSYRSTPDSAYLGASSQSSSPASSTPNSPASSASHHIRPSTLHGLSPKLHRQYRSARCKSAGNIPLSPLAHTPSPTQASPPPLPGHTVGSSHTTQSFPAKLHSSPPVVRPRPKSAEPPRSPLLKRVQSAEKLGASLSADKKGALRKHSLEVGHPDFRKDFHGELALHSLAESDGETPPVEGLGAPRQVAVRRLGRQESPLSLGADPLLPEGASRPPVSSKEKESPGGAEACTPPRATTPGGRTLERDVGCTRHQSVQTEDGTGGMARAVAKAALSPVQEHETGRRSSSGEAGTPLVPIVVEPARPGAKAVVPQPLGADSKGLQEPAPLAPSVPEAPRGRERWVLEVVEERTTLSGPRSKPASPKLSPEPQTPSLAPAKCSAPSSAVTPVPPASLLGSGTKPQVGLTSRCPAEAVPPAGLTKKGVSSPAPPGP
smiles,measurement,setting,value
C=CC(=O)Nc1cc(-n2c(=O)ccc3cnc4ccc(-c5ccc(NS(C)(=O)=O)cc5)cc4c32)ccc1C,% of control,[1]; at 1 µM,93%
same,% of control,[1]; at 10 µM,93%
Cc1cc(F)c(C(=O)Nc2cccc(-c3nncn3C(C)C)n2)cc1-n1cnc(C2CC2)c1,% of control,[2],90%
Cn1cc(-n2cnc3c(NCc4nc5cc(Cl)c(Cl)cc5[nH]4)nc(N4CCOCC4)nc32)cn1,% of control,[3],0.256%
O=C(NOC[C@H](O)CO)c1ccc(F)c(F)c1Nc1ccc(I)cc1F,% of control,[4],100%
O[C@H]1CC[C@H](Nc2ncc3nc(Nc4c(F)cc(F)cc4F)n([C@H]4CCOC4)c3n2)CC1,% of control,[5],75%
CN(C)CCOc1ccc(-c2nc(-c3ccncc3)c(-c3ccc4c(c3)CC/C4=N\O)[nH]2)cc1,% of control,[6],88%
same,% of control,[7],72%
CCN(CC)CCCCNc1ncc2cc(-c3cc(OC)cc(OC)c3)c(NC(=O)NC(C)(C)C)nc2n1,% of control,[8],100%
CN(C)C/C=C/C(=O)Nc1ccc(C(=O)N2CCCC(Nc3ncc(Cl)c(-c4c[nH]c5ccccc45)n3)C2)cc1 (stereo not given),% of control,[9],31%
